# From patent US20230048888A1, “USE OF TRIAZOLOTRIAZINE DERIVATIVE IN TREATMENT OF DISEASES” (ZHEJIANG VIMGREEN PHARMACEUTICALS, LTD., priority 2019, published 2023)
# Test system: A20 tumor cells
# Assay: A20 murine lymphoma (B lymphocytes) homotransplantation model
# Format: in vivo, BALB/c mice
# Conditions: for TGI (%): 50 mg/kg p.o. QD
# Protocol: A20 murine lymphoma (B lymphocyte) homotransplantation model is a classic pharmaceutical effect evaluation model for B lymphocyte cancer. It was constructed by subcutaneously inoculating homogeneous A20 tumor cells into the right ribs of female BALB/c mice by the same species. The test compounds were administrated to evaluate their inhibitory effects on tumor growth in the model.
# A20 tumor cells were cultured in an RPMI 1640 medium containing inactivated 10% fetal bovine serum, 100 U/ml penicillin, 100 μg/ml streptomycin and 0.05 mM 2-mercaptoethanol in an incubator at 37° C. in the presence of 5% CO2; and after the cells grew all over, the tumor cells were divided and passaged in respective flasks every 3 to 4 days. The tumor cells in the logarithmic growth phase were used for in vivo inoculation of tumors.
# The A20 tumor cells resuspended in a serum-free RPMI 1640 culture solution were inoculated subcutaneously at 3×10^5/100 μl to the right ribs of experimental animals. A total of 30 animals were inoculated. On the first day after tumor cell inoculation, 24 animals with a uniform body weight were selected in terms of body weight, and were grouped for dosage, with 12 animals in each group. The specific dosage regimen was carried out according to the experimental design.
# Tumor volume: the tumor volume was measured 3 times a week with a vernier caliper, and the long and short diameters of the tumor were measured. The volume was calculated with a formula as follows:
# volume=0.5×long diameter×short diameter^2.
# Tumor growth inhibition rate (TGI, %)=(1−T/C)×100,
# T/C(%)=(average tumor volume of treatment groups on the current day-average tumor volume of treatment groups on the initial day D0)/(average tumor volume of the control group on the current day-average tumor volume of the control group on the initial day D0)×100.
# Statistical analysis of tumor volume was carried out between groups by the SPSS T-test.
smiles,measurement,setting,value
"Nc1nc(NCCc2ccc(NC3COC3)cc2)nc2nc(-c3ccco3)nn12 [Compound 22, 2-(furan-2-yl)-N5-(4-(oxetan-3-ylamino)phenethyl)-[1,2,4]triazolo[1,5-a][1,3,5]triazine-5,7-diamine]",Clinical abnormalities during the dosage,50 mg/kg p.o. QD 24 days,no obvious clinical abnormalities were observed
same,TGI (%),Day 6 after tumor inoculation,11.9%
same,TGI (%),Day 8,8.4%
same,TGI (%),Day 10,7.0%
same,TGI (%),Day 13,16.5%
same,TGI (%),Day 15,29.4%
same,TGI (%),Day 17,32.6%
same,TGI (%),Day 20,28.5%
same,TGI (%),Day 22,36.4%
same,TGI (%),Day 24,35.6%
